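Cultured in 96-well plates, cells were exposed to test compound for 48 hours across five concentrations. Abbreviation: GI50, concentration required for 50% inhibition of growth. Definition used: TGI = concentration required for complete inhibition of growth.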 Where a SMILES comes first, the peptide text is derived from it. The star is where a group is joined. Boc = CC(C)(C)OC(=O)*
Experiments:
Assay in all cases: inhibition of tumour cell growth, NCI panel, 48 h
ACHN renal = system: ACHN renal
CCRF-CEM leukemia = system: CCRF-CEM leukemia
HCT-116 colon = system: HCT-116 colon
HCT-15 colon = system: HCT-15 colon
IGROV1 ovarian = system: IGROV1 ovarian
NCI-H522 lung = system: NCI-H522 lung
NCI/ADR-RES ovarian = system: NCI/ADR-RES ovarian
PC-3 prostate = system: PC-3 prostate
SF-268 CNS = system: SF-268 CNS
SNB-19 CNS = system: SNB-19 CNS

| SMILES | TGI (ACHN renal) [µM] | TGI (CCRF-CEM leukemia) [µM] | TGI (HCT-116 colon) [µM] | TGI (HCT-15 colon) [µM] | TGI (IGROV1 ovarian) [µM] | TGI (NCI-H522 lung) [µM] | TGI (NCI/ADR-RES ovarian) [µM] | TGI (PC-3 prostate) [µM] | TGI (SF-268 CNS) [µM] | TGI (SNB-19 CNS) [µM] | GI50 (ACHN renal) [µM] | GI50 (CCRF-CEM leukemia) [µM] | GI50 (HCT-116 colon) [µM] | GI50 (HCT-15 colon) [µM] | GI50 (IGROV1 ovarian) [µM] | GI50 (NCI-H522 lung) [µM] | GI50 (NCI/ADR-RES ovarian) [µM] | GI50 (PC-3 prostate) [µM] | GI50 (SF-268 CNS) [µM] | GI50 (SNB-19 CNS) [µM] |
| --- | --- | --- | --- | --- | --- | --- | --- | --- | --- | --- | --- | --- | --- | --- | --- | --- | --- | --- | --- | --- |
| CC(C)(C)OC(=O)NCC(=O)NCC(=O)NCC(=O)NCC(=O)O (Boc-GGGG-OH) | > 100 | > 100 | > 100 | > 100 | > 100 | > 100 | > 100 | > 100 | > 100 | > 100 | – | – | – | – | – | – | – | – | – | – |
| COc1ccc2cc3c4cc5c(cc4cc[n+]3cc2c1OC)OCO5 | > 100 | 35.5 | > 100 | > 100 | > 32.7 | 21.5 | > 100 | > 100 | 18.5 | 39.6 | – | – | – | – | – | – | – | – | – | – |
| C=CC[C@]12C[C@@H](C(=O)OC)N(C(=O)OC)[C@H]1N(S(=O)(=O)c1ccccc1)c1ccccc12 | > 100 | > 100 | > 100 | > 100 | > 100 | > 100 | > 100 | > 100 | > 100 | > 100 | – | – | – | – | – | – | – | – | – | – |
| CC(=O)N/N=C1\NC(=O)C[C@H]2[C@@H]3CC=C4C[C@@H](OC(C)=O)CC[C@]4(C)[C@H]3CC[C@]12C | 52.7 | > 100 | > 100 | > 100 | > 100 | > 100 | > 100 | > 100 | > 100 | 39.9 | – | – | – | – | – | – | – | – | – | – |
| CC(C)/C(Cl)=N\OC(=O)Nc1ccc(C#N)cc1 | 19 | 6.85 | 17.1 | 22.6 | 32.7 | 3.21 | 32.2 | 30.1 | 36.7 | 33.7 | – | – | – | – | – | – | – | – | – | – |
| CSc1c(C#N)c(N)n2c1C(=O)N(c1ccccc1)C2=S | > 100 | > 100 | > 100 | > 100 | > 100 | 57.7 | > 100 | > 100 | > 100 | > 100 | – | – | – | – | – | – | – | – | – | – |
| CCN(CC)CCOc1ccc(N2C(=O)c3cc(OC)c(OC)cc3C2=O)cc1 | > 100 | > 100 | > 100 | > 100 | > 100 | > 100 | > 100 | > 100 | > 100 | > 100 | – | – | – | – | – | – | – | – | – | – |
| N#CC(C#N)=CNC(=S)c1ccncc1 | > 100 | > 100 | > 100 | > 100 | > 100 | > 100 | > 100 | > 100 | > 100 | > 100 | – | – | – | – | – | – | – | – | – | – |
| CC1(C)N=C(C(N)=O)c2ncn(CCCO)c2N1 | > 100 | > 100 | > 100 | > 100 | > 100 | > 100 | > 100 | > 100 | > 100 | > 100 | – | – | – | – | – | – | – | – | – | – |
| Nc1c(-c2cccc3ccccc23)c2ccc([N+](=O)[O-])cc2c(=O)n1-c1nc2ccccc2s1 | > 100 | > 100 | > 40.2 | > 48 | > 100 | 6.86 | 10.5 | > 35.3 | > 31.7 | > 49.4 | – | – | – | – | – | – | – | – | – | – |
| CCCn1c(CN(Cc2nc3ccccc3n2CCC)Cc2nc3ccccc3n2CCC)nc2ccccc21 | > 100 | 21.7 | 13.6 | > 43.4 | 16.7 | > 59.9 | > 100 | 18.9 | 27.9 | > 100 | – | – | – | – | – | – | – | – | – | – |
| CCCCC1c2c([nH]c3ccccc23)C2C(=O)N(c3ccc(OC)cc3)C(=O)C2C1CCC (configuration not stated) | > 10 | 9.12 | 7.56 | > 10 | > 10 | > 10 | 5.68 | 7.46 | > 10 | > 10 | – | – | – | – | – | – | – | – | – | – |
| Cc1csc(-c2cn(C)c3c2C(=O)C(N)=CC3=O)n1 | > 52.1 | > 100 | > 100 | > 100 | 13.4 | > 100 | > 100 | > 100 | > 100 | > 100 | – | – | – | – | – | – | – | – | – | – |
| O=C(CCCN1CCC2(CC1)CC(=O)N(N1CCOCC1)C2=O)c1ccccc1 | > 100 | > 100 | > 100 | > 100 | > 100 | > 100 | > 100 | > 100 | > 100 | > 100 | – | – | – | – | – | – | – | – | – | – |
| COc1ccc2cc(-c3ccc(-c4ccc(C(=N)N)s4)s3)ccc2c1 | 8.76 | 4.21 | 4.11 | 3.7 | 5.45 | 4.57 | 4.87 | 4.33 | 4.97 | > 100 | 3.06 | 1.51 | 2.08 | 1.89 | 2.27 | 1.92 | 2.29 | 2.13 | 2.1 | 2.13 |
| CN(C)c1nc(=NCc2ccccc2)ss1 | > 10 | 4.66 | > 10 | > 10 | > 10 | > 10 | > 10 | > 10 | > 10 | > 10 | – | – | – | – | – | – | – | – | – | – |
| COc1ccc2nc3cc(Cl)ccc3c(NCCCNCCCNc3c4ccc(Cl)cc4nc4ccc(OC)cc34)c2c1 | 0.174 | 14.8 | – | 1.06 | – | 0.114 | > 22.8 | 0.182 | – | 0.314 | – | – | – | – | – | – | – | – | – | – |
| CCOC(=N)n1c(=O)n(C2=NCCN2)c2ccccc21 | > 100 | > 100 | > 100 | > 100 | > 100 | > 100 | > 100 | > 100 | > 100 | > 100 | – | – | – | – | – | – | – | – | – | – |
| CCOc1cc(C2CC(c3ccc(NS(=O)(=O)c4cc([N+](=O)[O-])ccc4C)cc3)=NN2C(=O)c2ccccc2)ccc1O (configuration not stated) | 85.3 | > 100 | 56.5 | > 100 | > 100 | 64.5 | > 100 | > 100 | > 100 | > 100 | – | – | – | – | – | – | – | – | – | – |
| CC(C)COP(=O)(OCC(C)C)C(NS(=O)(=O)c1ccccc1)(C(F)(F)F)C(F)(F)F | 10.2 | 36.6 | 21.7 | 23.8 | 16.8 | 17.4 | 23.6 | 31.7 | 34.7 | 54.1 | – | – | – | – | – | – | – | – | – | – |
